Results as given in ChEMBL document CHEMBL1201862, “PubChem BioAssay data set” (2004).
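Results reflect a 48-hour exposure of cells in 96-well plates to compound at five concentrations. GI50: concentration for 50% inhibition of growth.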 Calls of active or inactive are those of the source. Cut-off read from the data, not from the text of the source: active = GI50 up to about 1.1 µM and inactive = higher.

Legend:
Assay in all cases: NCI-60 cell line screen, 48 h
786-0 = tested on: 786-0
CCRF-CEM = tested on: CCRF-CEM
DU-145 = tested on: DU-145
HCC 2998 = tested on: HCC 2998
HL-60 = tested on: HL-60
K562 = tested on: K562
M14 = tested on: M14
MCF7 = tested on: MCF7
NCI-H23 = tested on: NCI-H23
NCI/ADR-RES = tested on: NCI/ADR-RES
OVCAR-8 = tested on: OVCAR-8
SK-OV-3 = tested on: SK-OV-3
SNB-19 = tested on: SNB-19
SR = tested on: SR
SW-620 = tested on: SW-620
T47D = tested on: T47D
UACC-257 = tested on: UACC-257
NCI-H226 = tested on: NCI-H226
TK-10 = tested on: TK-10
MDA-MB-231 = tested on: MDA-MB-231

| Compound | GI50 (786-0) | GI50 (CCRF-CEM) | GI50 (DU-145) | GI50 (HCC 2998) | GI50 (HL-60) | GI50 (K562) | GI50 (M14) | GI50 (MCF7) | GI50 (NCI-H23) | GI50 (NCI/ADR-RES) | GI50 (OVCAR-8) | GI50 (SK-OV-3) | GI50 (SNB-19) | GI50 (SR) | GI50 (SW-620) | GI50 (T47D) | GI50 (UACC-257) | GI50 (NCI-H226) | GI50 (TK-10) | GI50 (MDA-MB-231) |
| --- | --- | --- | --- | --- | --- | --- | --- | --- | --- | --- | --- | --- | --- | --- | --- | --- | --- | --- | --- | --- |
| CN(C)C(=O)Oc1ccc(C(=S)Nc2ccccc2)cc1 | > 100 µM (inactive) | 26.6 µM (inactive) | > 100 µM (inactive) | > 100 µM (inactive) | 21.6 µM (inactive) | 24.8 µM (inactive) | 41.2 µM (inactive) | 76 µM (inactive) | 28.6 µM (inactive) | 26.4 µM (inactive) | 25.6 µM (inactive) | > 100 µM (inactive) | > 100 µM (inactive) | 46.8 µM (inactive) | > 100 µM (inactive) | 53.6 µM (inactive) | 34.8 µM (inactive) |  |  |  |
| COc1nc2c(c(=O)n1C)N[C@@H]1[C@@H](O)[C@H](O)CO[C@@H]1N2 | > 100 µM (inactive) | > 100 µM (inactive) | > 100 µM (inactive) |  | > 100 µM (inactive) | > 100 µM (inactive) | > 100 µM (inactive) | > 100 µM (inactive) |  | > 100 µM (inactive) | > 100 µM (inactive) | > 100 µM (inactive) | > 100 µM (inactive) | > 100 µM (inactive) | > 100 µM (inactive) | > 100 µM (inactive) | > 100 µM (inactive) | > 100 µM (inactive) | > 100 µM (inactive) |  |
| CC(C)(C)N1C(=O)[N-]/[N+](=C(/C(c2ccccc2)=[N+]2/[N-]C(=O)N(C(C)(C)C)C2=O)c2ccccc2)C1=O | > 100 µM (inactive) | > 100 µM (inactive) | > 100 µM (inactive) | > 100 µM (inactive) |  | > 100 µM (inactive) | > 100 µM (inactive) | > 100 µM (inactive) | > 100 µM (inactive) |  |  | > 100 µM (inactive) | > 100 µM (inactive) |  | > 100 µM (inactive) | > 100 µM (inactive) | > 100 µM (inactive) |  | > 100 µM (inactive) | > 100 µM (inactive) |
| O=C(O)c1ccc(Nc2nc3ccc(C(F)(F)F)cc3nc2-c2ccccc2)cc1 | 37.7 µM (inactive) | 36.1 µM (inactive) | > 10 µM (inactive) | 14.5 µM (inactive) | 20.6 µM (inactive) | 45.2 µM (inactive) | 24 µM (inactive) | 15 µM (inactive) | 48 µM (inactive) | 28.8 µM (inactive) | 30.9 µM (inactive) |  | 52.2 µM (inactive) | 28.1 µM (inactive) | 45.7 µM (inactive) | 15.6 µM (inactive) | 70 µM (inactive) | 46.1 µM (inactive) | 23.1 µM (inactive) |  |
| CC(=O)[C@@H]1[C@@H](OC(=O)CCC(C)COC2OC(CO)C(O)C(O)C2O)C[C@H]2[C@@H]3CC=C4C[C@@H](OC5OC(CO)C(OC6OC(C)C(O)C(O)C6O)C(O)C5OC5OC(C)C(O)C(O)C5O)CC[C@]4(C)[C@H]3CC[C@]12C (some centres not stated) | > 100 µM (inactive) | > 100 µM (inactive) | > 100 µM (inactive) | > 100 µM (inactive) |  | > 100 µM (inactive) | > 100 µM (inactive) | > 100 µM (inactive) | > 100 µM (inactive) |  | > 100 µM (inactive) | > 100 µM (inactive) | > 100 µM (inactive) | > 100 µM (inactive) | 64.7 µM (inactive) | > 100 µM (inactive) | > 100 µM (inactive) |  | > 100 µM (inactive) | > 100 µM (inactive) |
| COC[C@H](Cc1ccccc1)/N=C/c1ccccc1 | > 100 µM (inactive) | > 100 µM (inactive) | > 100 µM (inactive) | > 100 µM (inactive) |  | > 100 µM (inactive) | > 100 µM (inactive) | > 100 µM (inactive) | > 100 µM (inactive) | > 100 µM (inactive) | > 100 µM (inactive) | > 100 µM (inactive) | > 100 µM (inactive) | > 100 µM (inactive) | > 100 µM (inactive) | > 100 µM (inactive) | > 100 µM (inactive) |  | > 100 µM (inactive) |  |
| O=[N+]([O-])c1cc(Cl)ccc1S(=O)(=O)c1cc(Cl)cc2c1NCCC2 | > 100 µM (inactive) | 26.4 µM (inactive) | > 100 µM (inactive) | > 100 µM (inactive) | 98.4 µM (inactive) | 24.5 µM (inactive) | 53 µM (inactive) | 37.8 µM (inactive) |  | 71.4 µM (inactive) | 56.6 µM (inactive) | > 100 µM (inactive) | > 100 µM (inactive) | 53.5 µM (inactive) | > 100 µM (inactive) |  | 22.4 µM (inactive) | 39.3 µM (inactive) | > 100 µM (inactive) | > 100 µM (inactive) |
| COc1cccc(N2CCc3c(C)c(C#N)c4nc5ccccc5n4c32)c1 | 58.3 µM (inactive) | > 100 µM (inactive) | > 100 µM (inactive) | > 100 µM (inactive) | > 100 µM (inactive) | > 100 µM (inactive) | > 100 µM (inactive) | > 100 µM (inactive) | > 100 µM (inactive) | > 100 µM (inactive) | 41.4 µM (inactive) | 48.1 µM (inactive) | 39.3 µM (inactive) |  | > 100 µM (inactive) |  | > 100 µM (inactive) | > 100 µM (inactive) | > 100 µM (inactive) | 12.2 µM (inactive) |
| Cc1ccc(S(=O)(=O)N/N=C(\c2nc3ccc([N+](=O)[O-])cc3nc2O)C(O)c2ccccc2Cl)cc1 (configuration not stated) | > 100 µM (inactive) | 17.5 µM (inactive) |  | > 100 µM (inactive) | 27.5 µM (inactive) | 28.2 µM (inactive) | 82.8 µM (inactive) |  | > 100 µM (inactive) |  | > 100 µM (inactive) | > 100 µM (inactive) | > 100 µM (inactive) | > 100 µM (inactive) | > 100 µM (inactive) |  | > 100 µM (inactive) | > 100 µM (inactive) | > 100 µM (inactive) |  |
| COc1ccc(/C=C2\CCC(C)C3=C2N=c2s/c(=C/c4cccc(Br)c4)c(=O)n2C3c2ccc(OC)c(OC)c2)cc1OC (configuration not stated) | > 100 µM (inactive) | > 100 µM (inactive) | > 100 µM (inactive) |  | > 100 µM (inactive) | > 100 µM (inactive) | > 100 µM (inactive) | > 100 µM (inactive) |  |  | > 100 µM (inactive) | > 100 µM (inactive) | > 100 µM (inactive) | > 100 µM (inactive) | > 100 µM (inactive) |  | > 100 µM (inactive) |  | > 100 µM (inactive) | > 100 µM (inactive) |
| CCC1(OC(C)=O)C(=O)OCc2c1cc1n(c2=O)Cc2cc3ccccc3nc2-1 (configuration not stated) | 0.564 µM (active) | 0.163 µM (active) |  | 4.42 µM (inactive) | 0.421 µM (active) | 3.1 µM (inactive) | 0.948 µM (active) |  | 0.966 µM (active) |  | 2.45 µM (inactive) | 2.28 µM (inactive) | 0.962 µM (active) | 0.276 µM (active) | 5.83 µM (inactive) |  | 4.45 µM (inactive) | 0.869 µM (active) | > 100 µM (inactive) |  |
| CCN1CCN=C2c3cc(OC)ccc3Nc3c([N+](=O)[O-])ccc1c32 | 0.512 µM (active) | 0.571 µM (active) | 2.72 µM (inactive) | 0.78 µM (active) | 0.516 µM (active) | 0.473 µM (active) | 1 µM (active) | 1.28 µM (inactive) | 1.35 µM (inactive) |  | 0.621 µM (active) | 2.43 µM (inactive) |  | 0.244 µM (active) | 0.472 µM (active) | 3.32 µM (inactive) | 1.83 µM (inactive) |  | 3.75 µM (inactive) | 0.736 µM (active) |
| CC#CC1/C(=C\C(=O)OC)CCCC1O (configuration not stated) | > 100 µM (inactive) | > 100 µM (inactive) |  | > 100 µM (inactive) | > 100 µM (inactive) | > 100 µM (inactive) | > 100 µM (inactive) |  | > 100 µM (inactive) |  | > 100 µM (inactive) | > 100 µM (inactive) | > 100 µM (inactive) | > 100 µM (inactive) | > 100 µM (inactive) |  | > 100 µM (inactive) | > 100 µM (inactive) | > 100 µM (inactive) |  |
| Cc1cc(-c2nc3ccccc3s2)ccc1NS(=O)(=O)O | > 8.85 µM (inactive) | > 4.65 µM (inactive) | > 22.2 µM (inactive) |  |  | 4.65 µM (inactive) | > 29.5 µM (inactive) | < 0.0382 µM (active) | > 7.11 µM (inactive) | > 7.1 µM (inactive) | > 4.85 µM (inactive) | > 33.5 µM (inactive) | > 24.4 µM (inactive) | 4.34 µM (inactive) | > 4.65 µM (inactive) |  | > 6.43 µM (inactive) | > 39.9 µM (inactive) | > 26.1 µM (inactive) | > 24.1 µM (inactive) |
| CC(=O)OC[C@@H](COC(=O)/C=C/c1ccc(O)cc1)OC1OC(CO)C(O)C(O)C1O (some centres not stated) | > 100 µM (inactive) | > 100 µM (inactive) | > 100 µM (inactive) | > 100 µM (inactive) | > 100 µM (inactive) | > 100 µM (inactive) | > 100 µM (inactive) |  | > 100 µM (inactive) |  | > 100 µM (inactive) | > 100 µM (inactive) | > 100 µM (inactive) | > 100 µM (inactive) | > 100 µM (inactive) |  | > 100 µM (inactive) | > 100 µM (inactive) | > 100 µM (inactive) |  |
| CSc1ccc2c(cc1=O)[C@@H](NC(=O)c1cc(O)c(O)c(O)c1)CCc1cc(O)c(O)c(O)c1-2 | 34.6 µM (inactive) | 3.33 µM (inactive) |  | > 100 µM (inactive) | 16.8 µM (inactive) | 3.8 µM (inactive) | 19.6 µM (inactive) |  | 20 µM (inactive) |  | 24 µM (inactive) | > 100 µM (inactive) | 81.3 µM (inactive) | 18.6 µM (inactive) | 17.1 µM (inactive) |  | 18 µM (inactive) | 16 µM (inactive) | 41.6 µM (inactive) |  |
